One compound from US12642791B2, “Inhibitors of lysyl oxidases” (UNIVERSITY OF SOUTH CAROLINA, priority 2021, dated 2026) can be followed below.

This data set deals with 4T1. Description: Syngeneic TNBC tumor model. It is filed as in vivo, BALB/c mice. The protocol:
FIG. 43. 6403 overcomes doxorubicin resistance without major toxicity in a syngeneic mouse model, 4T1. A. Tumor growth in 4T1 model treated with doxorubicin (2 mg/kg, I.V, weekly), 6403 (50 mg/kg, P.O, daily) or their combination. Representative pictures of the tumors shown on the right panel. B. Western blot analysis of LOX in 4T1 tumors from A. C. % body weight change of mice from A. D. Blood cell counts in mice from A at the end of the experiment. 500,000 4T1 cells were injected into MFP of 6-8 weeks old female BALB/c mice. When the tumors reach 100 mm3, mice were randomly distributed to 4 groups and treated with vehicle, doxorubicin (2 mg/kg once a week, I.V.), 6403 (50 mg/kg daily, oral gavage) or the combination of doxorubicin with 6403. Tumor volumes were measured using a caliper every two days, and body weights were also recorded. After 3 weeks of treatment, blood was withdrawn, and blood cells were quantified using VetScan HM5 Hematology Analyzer.

In the case of `CC(=O)Nc1ccc(Nc2nc(-c3sc(N)nc3C)cs2)cc1` [compound 6403, N-[4-[[4-(2-amino-4-methyl-thiazol-5-yl)thiazol-2-yl]amino]phenyl]acetamide], the tumor growth result (6403 50 mg/kg P.O. daily with doxorubicin 2 mg/kg I.V. weekly, vs either alone) is reported as “significantly reduced tumor growth”. Further, under “combination, 21-day treatment”, the blood counts result was “no significant change” and the body weights entry is recorded as “no significant change”.
